From patent publication US20160333419A1, “GENE SIGNATURES ASSOCIATED WITH SENSITIVITY TO MDM2 INHIBITORS” (DAIICHI SANKYO COMPANY, LIMITED, priority 2014, published 2016)

What was measured:
Assay in all cases: OncoPanel cytotoxicity assay
Type in all cases: cell-based
5637 = details: Homo sapiens, 72 hour incubation
Method: (§1) Cells were grown in RPMI 1640, 10% FBS, 2 mM L-alanyl-L-Glutamine, 1 mM Na Pyruvate, or a special medium in a humidified atmosphere of 5% CO2 at 37° C. Cells were seeded into 384-well plates and incubated in a humidified atmosphere of 5% CO2 at 37° C. Test compounds were added 24 hours post cell seeding. At the same time, a time zero, untreated cell plate was generated as a control. After a 72 hour incubation period, cells were fixed and stained with nuclear dye to allow visualization of nuclei.
(§2) Compounds were serially diluted 3.16-fold and assayed over 10 concentrations of inhibitor in a final assay concentration of 0.1% DMSO from the highest test concentration specified in the sample information chapter. Automated fluorescence microscopy was carried out using a GE Healthcare InCell Analyzer 1000, and images were collected with a 4× objective. Twelve bit tiff images were acquired using the InCell Analyzer 1000 3.2 and analyzed with Developer Toolbox 1.6 software.
(§3) Cell proliferation was measured by the signal intensity of the incorporated nuclear dye. The cell proliferation assay output is referred to as the relative cell count. To determine the cell proliferation end point, the cell proliferation data output is transformed to percent of control (POC) using the following formula: […]
(§4) Relative cell count IC50 (IC50) is the test compound's concentration that produces 50% of the cell proliferation inhibitory response or 50% cytotoxicity level. IC50 values were calculated using nonlinear regression to fit data to a sigmoidal 4 point, 4 parameter One-Site dose response model, where: y (fit)=A+[(B−A)/(1+((C/x)̂D))]. Curve-fitting, IC50 calculations and report generation were performed using a custom data reduction engine MathIQ based software (AIM). […] In these cases, the IC50 values were expressed as 40 μM and 10 μM, respectively (Table 2).

A431 = details: Homo sapiens, A-431, 72 hour incubation
Method: as §1, §2, §3, §4

AN3 CA = details: Homo sapiens, 72 hour incubation
Method: as §1, §2, §3, §4

BFTC-905 = details: Homo sapiens, 72 hour incubation
Method: as §1, §2, §3, §4

C-4 II = details: Homo sapiens, 72 hour incubation
Method: as §1, §2, §3, §4

C32 = details: Homo sapiens, 72 hour incubation
Method: as §1, §2, §3, §4

CAL-62 = details: Homo sapiens, 72 hour incubation
Method: as §1, §2, §3, §4

CCF-STTG1 = details: Homo sapiens, 72 hour incubation
Method: as §1, §2, §3, §4

CML-T1 = details: Homo sapiens, 72 hour incubation
Method: as §1, §2, §3, §4

COLO 829 = details: Homo sapiens, 72 hour incubation
Method: as §1, §2, §3, §4

Caki-2 = details: Homo sapiens, 72 hour incubation
Method: as §1, §2, §3, §4

Calu1 = details: Homo sapiens, Calu-1, 72 hour incubation
Method: as §1, §2, §3, §4

Calu6 = details: Homo sapiens, Calu-6, 72 hour incubation
Method: as §1, §2, §3, §4

Capan-2 = details: Homo sapiens, 72 hour incubation
Method: as §1, §2, §3, §4

Colo 201 = details: Homo sapiens, 72 hour incubation
Method: as §1, §2, §3, §4

Colo 320 HSR = details: Homo sapiens, 72 hour incubation
Method: as §1, §2, §3, §4

Colo 320DM = details: Homo sapiens, 72 hour incubation
Method: as §1, §2, §3, §4

EM-2 = details: Homo sapiens, 72 hour incubation
Method: as §1, §2, §3, §4

G-401 = details: Homo sapiens, 72 hour incubation
Method: as §1, §2, §3, §4

HLF = details: Homo sapiens, 72 hour incubation
Method: as §1, §2, §3, §4

HOS = details: Homo sapiens, 72 hour incubation
Method: as §1, §2, §3, §4

HT = details: Homo sapiens, 72 hour incubation
Method: as §1, §2, §3, §4

HepG2 = details: Homo sapiens, 72 hour incubation
Method: as §1, §2, §3, §4

MALME3M = details: Homo sapiens, Malme-3M, 72 hour incubation
Method: as §1, §2, §3, §4

MCF7 = details: Homo sapiens, 72 hour incubation
Method: as §1, §2, §3, §4

MeWo = details: Homo sapiens, 72 hour incubation
Method: as §1, §2, §3, §4

NALM-6 = details: Homo sapiens, 72 hour incubation
Method: as §1, §2, §3, §4

SCC-9 = details: Homo sapiens, 72 hour incubation
Method: as §1, §2, §3, §4

SJRH30 = details: Homo sapiens, 72 hour incubation
Method: as §1, §2, §3, §4

SJSA1 = details: Homo sapiens, SJSA-1, 72 hour incubation
Method: as §1, §2, §3, §4

SKMES1 = details: Homo sapiens, SK-MES-1, 72 hour incubation
Method: as §1, §2, §3, §4

SNB-19 = details: Homo sapiens, 72 hour incubation
Method: as §1, §2, §3, §4

SNU-5 = details: Homo sapiens, 72 hour incubation
Method: as §1, §2, §3, §4

SW1116 = details: Homo sapiens, SW 1116, 72 hour incubation
Method: as §1, §2, §3, §4

SW403 = details: Homo sapiens, SW-403, 72 hour incubation
Method: as §1, §2, §3, §4

SW480 = details: Homo sapiens, 72 hour incubation
Method: as §1, §2, §3, §4

SiHa = details: Homo sapiens, 72 hour incubation
Method: as §1, §2, §3, §4

T24 = details: Homo sapiens, T-24, 72 hour incubation
Method: as §1, §2, §3, §4

UM-UC-3 = details: Homo sapiens, UMUC3, 72 hour incubation
Method: as §1, §2, §3, §4

Compound `CC[C@@H]1CNC2(CC2)CN1C(=O)[C@@H]1C[C@@H](F)CN1C(=O)C1=C(C(C)C)N2C(=N[C@@](C)(c3ccc(Cl)nc3)[C@H]2c2ccc(Cl)c(F)c2)S1` [Compound A, [(5R,6S)-5-(4-Chloro-3-fluorophenyl)-6-(6-chloropyridin-3-yl)-6-methyl-3-(propan-2-yl)-5,6-dihydroimidazo[2,1-b][1,3]thiazol-2-yl][(2S,4R)-2-{[(6R)-6-ethyl-4,7-diazaspiro[2.5]oct-7-yl]carbonyl}-4-fluoropyrrolidin-1-yl]methanone] has an IC50 5637 of over 40 µM, an IC50 (A431) of over 40 µM and an IC50 (AN3 CA) of over 40 µM. It also gave an IC50 (BFTC-905) of over 40 µM, an IC50 (C-4 II) of over 40 µM and an IC50 (C32) of over 40 µM. It also gave an IC50 (CAL-62) of over 40 µM, an IC50 (CCF-STTG1) of 0.541 µM and an IC50 (CML-T1) of 2.38 µM. For the same compound, the IC50 (COLO 829) was 0.289 µM, the IC50 (Caki-2) was 0.472 µM and the IC50 (Calu1) was over 40 µM. For the same compound, the IC50 (Calu6) was over 40 µM, the IC50 (Capan-2) was over 40 µM and the IC50 (Colo 201) was 34.6 µM. It also gave an IC50 (Colo 320 HSR) of over 40 µM, an IC50 (Colo 320DM) of over 40 µM and an IC50 (EM-2) of over 40 µM. It also gave an IC50 (G-401) of 0.242 µM, an IC50 (HLF) of over 40 µM and an IC50 (HOS) of over 40 µM. For the same compound, the IC50 (HT) was over 40 µM, the IC50 (HepG2) was 0.335 µM and the IC50 (MALME3M) was 1.04 µM. The IC50 (MCF7) was 0.661 µM, the IC50 (MeWo) was over 40 µM and the IC50 (NALM-6) was 0.658 µM. The IC50 (SCC-9) was over 40 µM, the IC50 (SJRH30) was over 40 µM and the IC50 (SJSA1) was 0.214 µM. For the same compound, the IC50 (SKMES1) was 33.8 µM, the IC50 (SNB-19) was over 40 µM and the IC50 (SNU-5) was over 40 µM. The IC50 (SW1116) was over 40 µM, the IC50 (SW403) was over 40 µM and the IC50 (SW480) was over 40 µM. It also gave an IC50 (SiHa) of over 40 µM, an IC50 (T24) of over 40 µM and an IC50 (UM-UC-3) of over 40 µM.

`CC1(C)CCC2(CC1)N[C@@H](C(=O)N[C@@H]1CC[C@@H](C(N)=O)OC1)[C@H](c1ccnc(Cl)c1F)[C@]21C(=O)Nc2cc(Cl)ccc21` [Compound B, (3′R,4′S,5′R)—N-[(3R,6S)-6-carbamoyltetrahydro-2H-pyran-3-yl]-6″-chloro-4′-(2-chloro-3-fluoropyridin-4-yl)-4,4-dimethyl-2″-oxo-1″,2″-dihydrodispiro[cyclohexane-1,2′-pyrrolidine-3′,3″-indole]-5′-carboxamide] showed an IC50 5637 of over 10 µM, an IC50 (A431) of over 10 µM and an IC50 (AN3 CA) of 8.75 µM. It also gave an IC50 (BFTC-905) of 8.51 µM, an IC50 (C-4 II) of 9.1 µM and an IC50 (C32) of over 10 µM. It also gave an IC50 (CAL-62) of over 10 µM, an IC50 (CCF-STTG1) of 0.0852 µM and an IC50 (CML-T1) of 0.0597 µM. For the same compound, the IC50 (COLO 829) was 0.0266 µM, the IC50 (Caki-2) was 0.0821 µM and the IC50 (Calu1) was over 10 µM. For the same compound, the IC50 (Calu6) was 5.38 µM, the IC50 (Capan-2) was over 10 µM and the IC50 (Colo 201) was 7.33 µM. It also gave an IC50 (Colo 320 HSR) of over 10 µM, an IC50 (Colo 320DM) of over 10 µM and an IC50 (EM-2) of over 10 µM. It also gave an IC50 (G-401) of 0.0354 µM, an IC50 (HLF) of over 10 µM and an IC50 (HOS) of over 10 µM. For the same compound, the IC50 (HT) was over 10 µM, the IC50 (HepG2) was 0.0584 µM and the IC50 (MALME3M) was 0.0875 µM. It also gave an IC50 (MCF7) of 0.0833 µM, an IC50 (MeWo) of over 10 µM and an IC50 (NALM-6) of 0.065 µM. It also gave an IC50 (SCC-9) of over 10 µM, an IC50 (SJRH30) of 7.24 µM and an IC50 (SJSA1) of 0.0261 µM. It also gave an IC50 (SKMES1) of 8.73 µM, an IC50 (SNB-19) of over 10 µM and an IC50 (SNU-5) of over 10 µM. The IC50 (SW1116) was over 10 µM, the IC50 (SW403) was over 10 µM and the IC50 (SW480) was over 10 µM. It also gave an IC50 (SiHa) of over 10 µM, an IC50 (T24) of over 10 µM and an IC50 (UM-UC-3) of over 10 µM.
